In PubChem BioAssay (NCI) one finds GI50 and TGI data, which are given here for two compounds.

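At the GI50, growth is halved. TGI denotes the concentration required for complete inhibition of growth.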

Test in all cases: inhibition of tumour cell growth, NCI panel, 384-well format
The test system of assay [1] is NCI-H460 NSCLC.
Assay [2] has as its system SNB-19 CNS.
In assay [3] the test system is NCI-H226 lung.
The subject of assay [4] is LOX IMVI melanoma.
Assay [5] relates to COLO 205 colon.
For assay [6], the system named is K-562 leukemia.
In assay [7] the test system is OVCAR-5 ovarian.
For assay [8], the system named is SF-295 CNS.
For assay [9], the system named is NCI-H23 lung.
Assay [10] relates to RXF 393 renal.
For assay [11], the system named is SK-MEL-2 melanoma.
Assay [12] relates to KM12 colon.

Turning to `C[C@@H]1CN(C(=O)c2ccc(NC(=O)c3cc(O[C@H](C)c4c(Cl)ccc(F)c4Cl)c(N)nn3)cc2)C[C@H](C)N1`, the GI50 in [1] is 1 µM; in [2], 4.02 µM; in assay [3], 2.12 µM; in assay [4], 1.26 µM; in assay [5], 1.33 µM; in assay [6], 0.152 µM. Moreover, the GI50 is 1.54 µM in [7]; 1.72 µM in assay [8]; 0.642 µM in [9]; 1.74 µM in assay [10]; 1.77 µM in assay [11]; 0.0407 µM in assay [12]. In addition, the TGI in [1] was found to be 3.73 µM; in assay [2], 13.5 µM; in assay [3], 8.92 µM; in [4] it was 2.52 µM; in assay [5], 3.94 µM; in assay [6], 0.319 µM. The TGI in assay [7] was 4.7 µM; in assay [8], 5.81 µM; in [9], 3.76 µM; in assay [10] it was 3.27 µM; in [11], 4.27 µM; in assay [12], 5.37 µM.
Consider `O=C1CC(c2ccc(N3CCOCC3)cc2)(c2ccsc2)NC(=O)C1Sc1ccccc1Cl` (stereo not drawn), for which the GI50 in assay [1] is 9.07 µM; in assay [2] it was 16.9 µM; in assay [3], 50.3 µM; in assay [4], 35.9 µM; in [5], over 100 µM; in [6], 3.97 µM. Moreover, the GI50 is 67.7 µM in assay [7]; 35.7 µM in [8]; over 95.8 µM in assay [9]; 2.58 µM in [10]; over 56.1 µM in [11]; over 57.6 µM in [12]. The TGI in [1] is 98.5 µM; in assay [2] it was 63.8 µM; in assay [3], over 100 µM; in assay [4], over 100 µM; in assay [5], over 100 µM; in assay [6], over 100 µM. Moreover, the TGI is over 100 µM in assay [7]; over 100 µM in assay [8]; over 100 µM in assay [9]; 7.47 µM in assay [10]; over 100 µM in assay [11]; over 100 µM in assay [12].
